Data as given in publication PMC7327142 (Biomolecules & Therapeutics, 2020).

Legend:
HEK293 cells = details: for Cytotoxicity against HEK cells: 25 h

| SMILES | Cytotoxicity against HEK cells (HEK293 cells; 20 µM) | also measured |
| --- | --- | --- |
| CN(Cc1ccc(OCCN2CCN(C(=O)C3Cc4ccccc4O3)CC2)cc1)Cc1ccc2ncccc2c1 (stereo not shown) [Compound 60, (4-{2-[4-(2,3-dihydro-1-benzofuran-2-ylcarbonyl)-1-piperazinyl]ethoxy}benzyl)methyl(6-quinolinylmethyl)amine] | 0.572 |  |
| Cc1ccc(N2CC(C(=O)NCCS(=O)(=O)N3CCc4ccccc4C3)CC2=O)cc1 (stereo not shown) [Compound 75, N-(2-((3,4-dihydroisoquinolin-2(1H)-yl)sulfonyl)ethyl)-5-oxo-1-(p-tolyl)pyrrolidine-3-carboxamide] | 0.604 |  |
| Cc1ccc(N2CC(C(=O)NCCS(=O)(=O)N3CCc4ccccc4C3)CC2=O)cc1C (stereo not shown) [Compound 76, N-(2-((3,4-dihydroisoquinolin-2(1H)-yl)sulfonyl)ethyl)-1-(3,4-dimethylphenyl)-5-oxopyrrolidine-3-carboxamide] | 0.520 |  |
| O=C(NCCS(=O)(=O)N1CCc2ccccc2C1)C1CC(=O)N(c2ccc(Cl)cc2)C1 (stereo not shown) [Compound 74, 1-(4-chlorophenyl)-N-(2-((3,4-dihydroisoquinolin-2(1H)-yl)sulfonyl)ethyl)-5-oxopyrrolidine-3-carboxamide] | 0.568 | cytotoxicity in Vero cells (Vero cells): no cytotoxicity; growth of Vero cells (Vero cells): reduced the growth |
| COc1cccc(N2CC(C(=O)NCCS(=O)(=O)N3CCc4ccccc4C3)CC2=O)c1 (stereo not shown) [Compound 77, N-(2-((3,4-dihydroisoquinolin-2(1H)-yl)sulfonyl)ethyl)-1-(3-methoxyphenyl)-5-oxopyrrolidine-3-carboxamide] | 0.578 |  |
| O=C(CCCc1ccccc1)Nc1cccc(N2CCC(NCc3cccnc3)CC2)c1 [Compound 33, 4-phenyl-N-(3-{4-[(3-pyridinylmethyl)amino]-1-piperidinyl}phenyl)butanamide] | 0.588 |  |
| O=C(NCCS(=O)(=O)N1CCN(c2ccc(F)cc2)CC1)C1CC(=O)N(c2ccccc2)C1 (stereo not shown) [Compound 78, N-(2-((4-(4-fluorophenyl)piperazin-1-yl)sulfonyl)ethyl)-5-oxo-1-phenylpyrrolidine-3-carboxamide] | 0.574 |  |
| O=C(CCCN1C(=O)c2ccccc2C1=O)Nc1ccc2ccccc2c1 [Compound 4, 4-(1,3-dioxo-1,3-dihydro-2H-isoindol-2-yl)-N-2-naphthylbutanamide] | 0.603 | effect on growth and proliferation of HEK293 cells (HEK293 cells): decreased the cell numbers |
| O=C(c1cc(-c2ccc(F)cc2)n[nH]1)N1CCC(Cc2ccc(CO)cc2)C1 (stereo not shown) [Compound 22, {4-[(1-{[3-(4-fluorophenyl)-1H-pyrazol-5-yl]carbonyl}pyrrolidin-3-yl)methyl]phenyl}methanol] | 0.596 |  |
| CC(C)(O)C#Cc1ccc(C(=O)N2CCCC(CCC(=O)NCc3ccccc3F)C2)cc1 (stereo not shown) [Compound 35, N-(2-fluorobenzyl)-3-{1-[4-(3-hydroxy-3-methyl-1-butyn-1-yl)benzoyl]-3-piperidinyl}propanamide] | 0.580 |  |
| COC(=O)c1c(NC(=O)C2CCCO2)c2cc(NCc3cccc(OCCO)c3)cnc2n1CCc1ccccc1 (stereo not shown) [Compound 69, methyl 5-{[3-(2-hydroxyethoxy)benzyl]amino}-1-(2-phenylethyl)-3-[(tetrahydro-2-furanylcarbonyl)amino]-1H-pyrrolo[2,3-b]pyridine-2-carboxylate] | 0.529 | effect on growth and proliferation of HEK293 cells (HEK293 cells): decreased the cell numbers; morphological changes in HEK293 cells (HEK293 cells; 20 µM): slightly triggered cellular shrinking |
| O=C(C1CCCN(c2cccc3c2C(=O)N(Cc2ccsc2)C3=O)C1)N1CCC(O)(c2cccc(C(F)(F)F)c2)CC1 (stereo not shown) [Compound 73, 4-[3-({4-hydroxy-4-[3-(trifluoromethyl)phenyl]-1-piperidinyl}carbonyl)-1-piperidinyl]-2-(3-thienylmethyl)-1H-isoindole-1,3(2H)-dione] | 0.602 | cytotoxicity in Vero cells (Vero cells): no cytotoxicity; growth of Vero cells (Vero cells): reduced the growth |
| Cn1cc(C(=O)N2CCN(CCOc3ccc(CN4CCC(Cc5ccccc5)CC4)cc3)CC2)c(=O)c2ccccc21 [Compound 58, 3-{[4-(2-{4-[(4-benzyl-1-piperidinyl)methyl]phenoxy}ethyl)-1-piperazinyl]carbonyl}-1-methyl-4(1H)-quinolinone] | 0.602 |  |
| COCc1ccc(C(=O)NCc2nc(-c3cccc(NC(=O)C4CCCN(C)C4)c3)oc2C)s1 (stereo not shown) [Compound 26, N-(3-{4-[({[5-(methoxymethyl)-2-thienyl]carbonyl}amino)methyl]-5-methyl-1,3-oxazol-2-yl}phenyl)-1-methyl-3-piperidinecarboxamide] | 0.587 |  |
| O=C(Nc1cccc(N2CCC(NCCC(c3ccc(F)cc3)c3ccco3)CC2)c1)c1ccncc1 (stereo not shown) [Compound 61, N-[3-(4-{[3-(4-fluorophenyl)-3-(2-furyl)propyl]amino}-1-piperidinyl)phenyl]isonicotinamide] | 0.173 |  |
